The subject of the assay is cortical cells and hippocampal cells. Put plainly: MTT assay, in vitro screening of compounds for cell proliferation activity. The assay is classed as cell-based, rat. Conditions: 24 hrs treatment. The text has this: The Tetrazolium MTT [3-(4, 5-dimethyl thiazol-2-yl)-2,5-diphenyl tetrazolium bromide] Assay: MTT assay was used to screen various compounds for their proliferating effect on cortical cells and hippocampal cells. The principle of MTT test is based on the ability of live cells to form insoluble purple formazan product from the breakdown of the water soluble yellow tetrazolium salt by mitochondrial enzyme succinate dehydrogenase (Mosmann, 1983). The resulting intracellular purple formazan can quantify by spectrophotometric means. The MTT Cell Proliferation Assay measures the cell proliferation rate and conversely, when metabolic events lead to apoptosis or necrosis, the reduction in cell viability.
The density of the cortical and hippocampal cells was adjusted at the density 2×10^5 cells/mL in complete DMEM medium (5% FBS). The cells (5000/well) were then plated in 96-wells plate and incubated for 24 hrs at 37° C. with 5% CO2. Following 24 hrs incubation, media was removed and 100 μL of each test compounds in DMEM media (5% FBS) were added. […] The culture plates were re-incubated for 24 hrs at 37° C. in 5% CO2. Cells treated with 0.1% DMSO in complete media (5% FBS) were used as vehicle controls. […] The absorbance was read at 495 nm on spectrophotometer. […] The percent rate of proliferation was calculated using the following formula, % rate of proliferation={(At−Ab)/(Ac−Ab)}×100

SMILES strings stand for the structures.

As to `CC1=CC(=CC(=O)O)CC(C)(C)C1` (mixture of isomers) [acid analog, (E/Z)-2-(3,5,5-trimethylcyclohex-2-enylidene)acetic acid], the “activity on the cell proliferation (MTT screening)” value is reported as “significant potent activity of isoxylitones followed by acid analog”.

These data come from patent US11065211B2, “Isoxylitones mediated neurogenesis” (priority 2018, dated 2021).
